From ChEMBL document CHEMBL6120979, “Cell penetrable peptide nucleic acids targeting PDZK1IP1 with anti-inflammatory potential in human keratinocytes” (Bioorg Med Chem Lett, 2025)
Calls of active or inactive are those of the source. No cut-off for these calls is given here.

Tests used:
Keratinocyte [1] = experiment: Antiinflammatory activity in human keratinocytes assessed as downregulation of PDZK1IP1 gene expression at 1 uM preincubated with compound for 24 hrs followed by IFN-gamma addition and measured after 24 hrs by RT-qPCR analysis; type: functional, cell-based; settings: time 48.0 hrs
Keratinocyte [2] = experiment: Inhibition of PDZK1IP1 mRNA expression in human keratinocytes at 1 uM incubated for 24 hrs by RT-qPCR analysis; type: functional, cell-based
Keratinocyte [3] = experiment: Antiinflammatory activity in human keratinocytes assessed as downregulation of PTGS2 gene expression at 1 uM preincubated with compound for 24 hrs followed by IFN-gamma addition and measured after 24 hrs by RT-qPCR analysis; type: functional, cell-based; settings: time 48.0 hrs
Keratinocyte [4] = experiment: Antiinflammatory activity in human keratinocytes assessed as downregulation of IL6 gene expression at 1 uM preincubated with compound for 24 hrs followed by IFN-gamma addition and measured after 24 hrs by RT-qPCR analysis; type: functional, cell-based; settings: time 48.0 hrs
Keratinocyte [5] = experiment: Inhibition of PDZK1IP1 mRNA expression in human keratinocytes at 0.01 to 1 uM incubated for 24 hrs by RT-qPCR analysis; type: functional, cell-based; settings: dose 0.01-1 µM
RNA [6] = experiment: Binding affinity to complementary RNA (unknown origin) with mismatch bases in sodium phosphate buffer; type: nucleic-acid assay
RNA [7] = experiment: Binding affinity to complementary RNA (unknown origin) in sodium phosphate buffer assessed as melting temperature of PNA-RNA duplex; type: nucleic-acid assay
Keratinocyte [8] = experiment: Inhibition of PDZK1IP1 mRNA expression in human keratinocytes incubated for 24 hrs by RT-qPCR analysis; type: functional, cell-based
Keratinocyte [9] = experiment: Antiinflammatory activity in human keratinocytes assessed as downregulation of PTGS2 gene expression preincubated with compound for 24 hrs followed by IFN-gamma addition and measured after 24 hrs by RT-qPCR analysis; type: functional, cell-based; settings: dose 0.01-1 µM, time 48.0 hrs
Keratinocyte [10] = experiment: Antiinflammatory activity in human keratinocytes assessed as downregulation of PDZK1IP1 gene expression preincubated with compound for 24 hrs followed by IFN-gamma addition and measured after 24 hrs by RT-qPCR analysis; type: functional, cell-based; settings: dose 0.01-1 µM, time 48.0 hrs
Keratinocyte [11] = experiment: Antiinflammatory activity in human keratinocytes assessed as downregulation of IL6 gene expression preincubated with compound for 24 hrs followed by IFN-gamma addition and measured after 24 hrs by RT-qPCR analysis; type: functional, cell-based; settings: dose 0.01-1 µM, time 48.0 hrs

Activity (RNA [6]) | Tm (RNA [7]) [°C] | SMILES | Activity (Keratinocyte [1]) | inhibition (Keratinocyte [2]) | Activity (Keratinocyte [3]) | Activity (Keratinocyte [4]) | inhibition (Keratinocyte [5]) | inhibition (Keratinocyte [8]) | Activity (Keratinocyte [9]) | Activity (Keratinocyte [10]) | Activity (Keratinocyte [11])
– | – | Cc1cn(CC(=O)N(CCN)CC(=O)NCCN(CC(=O)NCCN(CC(=O)NCCN(CC(=O)NCCN(CC(=O)NCCN(CC(=O)NCCN(CC(=O)NCCN(CC(=O)NCCN(CC(=O)NCCN(CC(=O)NCCN(CC(=O)NCCN(CC(=O)NCCN(CC(=O)NCCN(CC(=O)NCCN(CC(=O)NCCN(CC(=O)NCCN(CC(=O)NCCN(CC(=O)NCCN(CC(=O)NCCN(CC(N)=O)C(=O)Cn2cnc3c(=O)[nH]c(N)nc32)C(=O)Cn2ccc(N)nc2=O)C(=O)Cn2cnc3c(N)nc(NCCCCCN)nc32)C(=O)Cn2cc(C)c(=O)[nH]c2=O)C(=O)Cn2ccc(N)nc2=O)C(=O)Cn2cnc3c(N)ncnc32)C(=O)Cn2cnc3c(=O)[nH]c(N)nc32)C(=O)Cn2cnc3c(N)ncnc32)C(=O)Cn2ccc(N)nc2=O)C(=O)Cn2cnc3c(N)nc(N)nc32)C(=O)Cn2cnc3c(N)nc(NCCCCCN)nc32)C(=O)Cn2ccc(N)nc2=O)C(=O)Cn2cc(C)c(=O)[nH]c2=O)C(=O)Cn2cc(C)c(=O)[nH]c2=O)C(=O)Cn2ccc(N)nc2=O)C(=O)Cn2cnc3c(N)nc(NCCCCCN)nc32)C(=O)Cn2ccc(N)nc2=O)C(=O)Cn2cc(C)c(=O)[nH]c2=O)C(=O)Cn2cc3cc(COCCN)[nH]c3nc2=O)c(=O)[nH]c1=O | inactive | inactive | inactive | inactive | – | – | – | – | –
inactive | 74.1 | Cc1cn(CC(=O)N(CCNC(=O)CN(CCNC(=O)CN(CCNC(=O)CN(CCNC(=O)CN(CCNC(=O)CN(CCNC(=O)CN(CCNC(=O)CN(CCNC(=O)CN(CCNC(=O)CN(CCNC(=O)CN(CCNC(=O)CN(CCNC(=O)CN(CCN)C(=O)Cn2cnc3c(N)nc(NCCCCCN)nc32)C(=O)Cn2ccc(N)nc2=O)C(=O)Cn2cc(C)c(=O)[nH]c2=O)C(=O)Cn2ccc(N)nc2=O)C(=O)Cn2cnc3c(N)nc(NCCCCCN)nc32)C(=O)Cn2ccc(N)nc2=O)C(=O)Cn2cnc3c(=O)[nH]c(NCCCCCCN)nc32)C(=O)Cn2cnc3c(=O)[nH]c(N)nc32)C(=O)Cn2cc3cc(COCCN)[nH]c3nc2=O)C(=O)Cn2cc(C)c(=O)[nH]c2=O)C(=O)Cn2ccc(N)nc2=O)C(=O)Cn2cc3cc(COCCN)[nH]c3nc2=O)CC(=O)NCCN(CC(=O)O)C(=O)Cn2ccc(N)nc2=O)c(=O)[nH]c1=O | – | Active | – | – | Mild_effect; Mild Dose Dependent Effect Observed | – | – | – | –
inactive | 84 | Cc1cn(CC(=O)N(CCNC(=O)CN(CCNC(=O)CN(CCNC(=O)CN(CCNC(=O)CN(CCNC(=O)CN(CCNC(=O)CN(CCN)C(=O)Cn2cnc3c(=O)[nH]c(N)nc32)C(=O)Cn2cnc3c(=O)[nH]c(NCCCCCCN)nc32)C(=O)Cn2ccc(N)nc2=O)C(=O)Cn2cc(C)c(=O)[nH]c2=O)C(=O)Cn2cc3cc(COCCN)[nH]c3nc2=O)C(=O)Cn2ccc(N)nc2=O)CC(=O)NCCN(CC(=O)NCCN(CC(=O)NCCN(CC(=O)NCCN(CC(=O)NCCN(CC(=O)NCCN(CC(=O)NCCN(CC(=O)O)C(=O)Cn2cnc3c(N)nc(NCCCCCN)nc32)C(=O)Cn2ccc(N)nc2=O)C(=O)Cn2cnc3c(=O)[nH]c(N)nc32)C(=O)Cn2cnc3c(=O)[nH]c(NCCCCCCN)nc32)C(=O)Cn2cc(C)c(=O)[nH]c2=O)C(=O)Cn2cc3cc(COCCN)[nH]c3nc2=O)C(=O)Cn2ccc(N)nc2=O)c(=O)[nH]c1=O | – | Active | – | – | Mild_effect; Mild Dose Dependent Effect Observed | – | – | – | –
inactive | > 90 | Cc1cn(CC(=O)N(CCN)CC(=O)NCCN(CC(=O)NCCN(CC(=O)NCCN(CC(=O)NCCN(CC(=O)NCCN(CC(=O)NCCN(CC(=O)NCCN(CC(=O)NCCN(CC(=O)NCCN(CC(=O)NCCN(CC(=O)NCCN(CC(=O)NCCN(CC(=O)NCCN(CC(=O)NCCN(CC(=O)NCCN(CC(=O)NCCN(CC(=O)NCCN(CC(=O)NCCN(CC(=O)NCCN(CC(=O)O)C(=O)Cn2cnc3c(=O)[nH]c(NCCCCCCN)nc32)C(=O)Cn2ccc3c(=O)[nH]c(N)nc32)C(=O)Cn2cnc3c(=O)[nH]c(N)nc32)C(=O)Cn2cnc3c(=O)[nH]c(NCCCCCCN)nc32)C(=O)Cn2cc(C)c(=O)[nH]c2=O)C(=O)Cn2ccc(N)nc2=O)C(=O)Cn2ccc(N)nc2=O)C(=O)Cn2ccc(N)nc2=O)C(=O)Cn2cc(C)c(=O)[nH]c2=O)C(=O)Cn2cc3cc(COCCN)[nH]c3nc2=O)C(=O)Cn2cnc3c(=O)[nH]c(N)nc32)C(=O)Cn2cnc3c(=O)[nH]c(N)nc32)C(=O)Cn2cnc3c(N)nc(NCCCCCN)nc32)C(=O)Cn2ccc(N)nc2=O)C(=O)Cn2cnc3c(=O)[nH]c(N)nc32)C(=O)Cn2cc(C)c(=O)[nH]c2=O)C(=O)Cn2cnc3c(=O)[nH]c(N)nc32)C(=O)Cn2cc(C)c(=O)[nH]c2=O)C(=O)Cn2cnc3c(=O)[nH]c(N)nc32)c(=O)[nH]c1=O | – | – | – | – | – | Dose-dependent-effect | – | – | –
inactive | 75 | Cc1cn(CC(=O)N(CCNC(=O)CN(CCNC(=O)CN(CCNC(=O)CN(CCNC(=O)CN(CCNC(=O)CN(CCNC(=O)CN(CCNC(=O)CN(CCNC(=O)CN(CCNC(=O)CN(CCNC(=O)CN(CCNC(=O)CN(CCNC(=O)CN(CCNC(=O)CN(CCN)C(=O)Cn2cc(C)c(=O)[nH]c2=O)C(=O)Cn2cnc3c(=O)[nH]c(NCCCCCCN)nc32)C(=O)Cn2cc(C)c(=O)[nH]c2=O)C(=O)Cn2cnc3c(=O)[nH]c(NCCCCCCN)nc32)C(=O)Cn2ccc(N)nc2=O)C(=O)Cn2cnc3c(N)nc(NCCCCCN)nc32)C(=O)Cn2cnc3c(=O)[nH]c(N)nc32)C(=O)Cn2cnc3c(=O)[nH]c(NCCCCCCN)nc32)C(=O)Cn2ccc(N)nc2=O)C(=O)Cn2cc(C)c(=O)[nH]c2=O)C(=O)Cn2ccc(N)nc2=O)C(=O)Cn2cc3cc(COCCN)[nH]c3nc2=O)C(=O)Cn2ccc(N)nc2=O)CC(=O)O)c(=O)[nH]c1=O | – | Active | – | – | Mild_effect; Mild Dose Dependent Effect Observed | – | – | – | –
inactive | 80 | Cc1cn(CC(=O)N(CCN)CC(=O)NCCN(CC(=O)NCCN(CC(=O)NCCN(CC(=O)NCCN(CC(=O)NCCN(CC(=O)NCCN(CC(=O)NCCN(CC(=O)NCCN(CC(=O)NCCN(CC(=O)NCCN(CC(=O)NCCN(CC(=O)NCCN(CC(=O)NCCN(CC(=O)O)C(=O)Cn2cnc3c(=O)[nH]c(N)nc32)C(=O)Cn2cnc3c(=O)[nH]c(NCCCCCCN)nc32)C(=O)Cn2cc(C)c(=O)[nH]c2=O)C(=O)Cn2ccc(N)nc2=O)C(=O)Cn2ccc(N)nc2=O)C(=O)Cn2cc3cc(COCCN)[nH]c3nc2=O)C(=O)Cn2cc(C)c(=O)[nH]c2=O)C(=O)Cn2ccc(N)nc2=O)C(=O)Cn2cnc3c(=O)[nH]c(NCCCCCCN)nc32)C(=O)Cn2cnc3c(=O)[nH]c(N)nc32)C(=O)Cn2cnc3c(N)nc(NCCCCCN)nc32)C(=O)Cn2ccc(N)nc2=O)C(=O)Cn2cnc3c(=O)[nH]c(NCCCCCCN)nc32)c(=O)[nH]c1=O | – | Active | – | – | – | Dose-dependent-effect | Dose-dependent-effect | Dose-dependent-effect | Dose-dependent-effect
